# Data reported in patent publication US20210386736A1, “COMBINATION THERAPY FOR TREATING CANCER” (AstraZeneca AB, priority 2018, published 2021).
# Assays:
# [1] = test system: KG1a AML cells; test: KG1a subcutaneous AML xenograft, tumor volume over time; assay type: in vivo, SCID mice; details: FIG. 1; AZD2811 nanoparticles 100 mg/kg iv once weekly, venetoclax 100 mg/kg orally daily, 3 weekly cycles
# Experimental: (§1) KGa1: 2×10^7 KG1a AML cells in 50% matrigel were implanted subcutaneously on the left flank of adult female SCID mice. Mice were randomised by tumor volume at D7 into groups of 8, with an average tumor volume of 0.2 cm^3 and all dosing was started. AZD2811 nanoparticles were dosed at once weekly with a 20-30 s intravenous infusion at either 100 mg/kg (100 mg/kg was the maximum tolerated dose in combination with venetoclax (ABT-199) 100 mg/kg; venetoclax was administered orally daily at 100 mg/kg). All drugs were given for 3 weekly cycles.
# as §1, with “HL-60: 1×10^7 HL-60 AML” for “KGa1: 2×10^7 KG1a AML”, “either 50 mg/kg, 25 mg/kg, 12.5 mg/kg and 6.25” for “either 100”, “cycles. For both models, tumors were measured twice weekly by single operators, and all dosing was performed by randomised cage to minimise systematic bias. […] All drugs were given for 2 weekly cycles, the study endpoint was determined by a welfare scoring table.” for “cycles.”
# [2] = test system: HL-60 AML cells; test: HL-60 subcutaneous AML xenograft, tumor volume over time; assay type: in vivo, SCID mice; details: FIG. 2; AZD2811 nanoparticles 50, 25, 12.5 or 6.25 mg/kg iv once weekly, venetoclax 100 mg/kg orally daily, 3 weekly cycles; combination benefit notably at the lowest doses of AZD2811
# Experimental: HL-60: 1×10^7 HL-60 AML cells in 50% matrigel were implanted subcutaneously on the left flank of adult female SCID mice. Mice were randomised by tumor volume at D7 into groups of 8, with an average tumor volume of 0.2 cm^3 and all dosing was started. AZD2811 nanoparticles were dosed at once weekly with a 20-30 s intravenous infusion at either 50 mg/kg, 25 mg/kg, 12.5 mg/kg and 6.25 mg/kg (100 mg/kg was the maximum tolerated dose in combination with venetoclax (ABT-199) 100 mg/kg; venetoclax was administered orally daily at 100 mg/kg). All drugs were given for 3 weekly cycles. For both models, tumors were measured twice weekly by single operators, and all dosing was performed by randomised cage to minimise systematic bias. For the MOLM-13 orthotopic model, 1×10^6 MOLM-13 cells were injected into the tail vien of adult female NOG mice. After 3 days, mice were randomised by body-weight into groups of 8 and treatment was commenced the following day. AZD2811 nanoparticles were dosed at once weekly with a 20-30 s intravenous infusion at 25 mg/kg (25 mg/kg was the maximum tolerated dose in combination with venetoclax (ABT-199) 100 mg/kg; venetoclax was administered orally daily at 100 mg/kg). […] All drugs were given for 2 weekly cycles, the study endpoint was determined by a welfare scoring table.
smiles,measurement,setting,value
"CC1(C)CCC(CN2CCN(c3ccc(C(=O)NS(=O)(=O)c4ccc(NCC5CCOCC5)c([N+](=O)[O-])c4)c(Oc4cnc5[nH]ccc5c4)c3)CC2)=C(c2ccc(Cl)cc2)C1 [venetoclax, Venetoclax]",efficacy (KG1a tumor volume over time),[1],modestly efficacious
same,efficacy (HL-60 tumor volume over time),[2],active
